Assay results: EP0067913B1, “Composition for the treatment of acne” (RUSH-HAMPTON INDUSTRIES, INC., priority 1981, dated 1982)

Experiments:
[1] = tested on: Pityrosporum ovale ATCC 14521; experiment: Fungicidal activity test in corn oil medium (Sabouraud Dextrose broth and corn oil); format: cell-based; settings: concentrations of 200 ppm or greater in the upper oil layer; 37°C, aerobic conditions, 7 days
Protocol: This organism is cultured in a corn oil medium prepared with Sabouraud Dextrose broth and Mazola@ Corn Oil. Solutions of naringenin and this broth were made in which the concentration of naringenin in the upper oil layer was 200 ppm, 400 ppm, 600 ppm, and 800 ppm. Three solutions of each concentration were tested. Each tube was inoculated with a loop full of the test organism and incubated at 37°C under aerobic conditions for 7 days.

[2] = Water solubility (qualitative comparison); format: physicochemical; settings: qualitative comparison with partially hydrolyzed naringin

O=C1C[C@@H](c2ccc(O)cc2)Oc2cc(O)cc(O)c21 [naringenin]
effect on the growth of Pityrosporum ovale ATCC 14521 [1]: severely retarded the growth | water solubility [2]: less than those of partially hydrolyzed naringin
